Test results as given in US12258327B2, “5-membered heteroaryl-containing aminopyridine compounds as EGFR inhibitors” (YUHAN CORPORATION, priority 2021, dated 2025).
Like-named read-outs stand apart in the source and are kept apart here.

Assays:
[1] = molecular target: EGFR L858R/C797S (Homo sapiens, UniProt P00533, C797S/L858R); test: Biochemical EGFR kinase assay (Lance Ultra TR-FRET), double mutant L858R/C797S
Outline: (§1)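 In this biochemical assay, phosphorylation after a one-hour room-temperature reaction was detected with europium-labelled anti-phosphopeptide antibody at 2 nM final concentration.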

[2] = molecular target: EGFR L858R/T790M/C797S (Homo sapiens, UniProt P00533, C797S/L858R/T790M); test: Biochemical EGFR kinase assay (Lance Ultra TR-FRET), triple mutant L858R/T790M/C797S
Outline: as §1

[3] = molecular target: EGFR del19/C797S (Homo sapiens, UniProt P00533, C797S/DEL746-750); test: Biochemical EGFR kinase assay (Lance Ultra TR-FRET), double mutant del19/C797S
Outline: as §1

[4] = molecular target: EGFR del19/T790M/C797S (Homo sapiens, UniProt P00533, C797S/DEL746-750/T790M); test: Biochemical EGFR kinase assay (Lance Ultra TR-FRET), triple mutant del19/T790M/C797S
Outline: as §1

[5] = molecular target: EGFR wildtype (WT) (Homo sapiens, UniProt P00533); test: Biochemical EGFR kinase assay (Lance Ultra TR-FRET), wildtype
Outline: as §1

[6] = IC50 L858R/C797S (nM) 100 μM ATP, 100 μM ATP
[7] = Km ATP, read-out: IC50 L858R/C797S (nM) Km ATP
[8] = IC50 L858R/T790M/C797S (nM) 100 μM ATP, 100 μM ATP
[9] = Km ATP, read-out: IC50 L858R/T790M/C797S (nM) Km ATP
[10] = IC50 del19/C797S (nM) 100 μM ATP, 100 μM ATP
[11] = Km ATP, read-out: IC50 del19/C797S (nM) Km ATP
[12] = IC50 del19/T790M/C797S (nM) 100 μM ATP, 100 μM ATP
[13] = Km ATP, read-out: IC50 del19/T790M/C797S (nM) Km ATP
[14] = IC50 WT (nM) 100 μM ATP, 100 μM ATP
[15] = Km ATP, read-out: IC50 WT (nM) Km ATP

Chain of EGFR del19/T790M/C797S (P00533 with tags, fused parts or gaps DEL746-750/T790M/C797S): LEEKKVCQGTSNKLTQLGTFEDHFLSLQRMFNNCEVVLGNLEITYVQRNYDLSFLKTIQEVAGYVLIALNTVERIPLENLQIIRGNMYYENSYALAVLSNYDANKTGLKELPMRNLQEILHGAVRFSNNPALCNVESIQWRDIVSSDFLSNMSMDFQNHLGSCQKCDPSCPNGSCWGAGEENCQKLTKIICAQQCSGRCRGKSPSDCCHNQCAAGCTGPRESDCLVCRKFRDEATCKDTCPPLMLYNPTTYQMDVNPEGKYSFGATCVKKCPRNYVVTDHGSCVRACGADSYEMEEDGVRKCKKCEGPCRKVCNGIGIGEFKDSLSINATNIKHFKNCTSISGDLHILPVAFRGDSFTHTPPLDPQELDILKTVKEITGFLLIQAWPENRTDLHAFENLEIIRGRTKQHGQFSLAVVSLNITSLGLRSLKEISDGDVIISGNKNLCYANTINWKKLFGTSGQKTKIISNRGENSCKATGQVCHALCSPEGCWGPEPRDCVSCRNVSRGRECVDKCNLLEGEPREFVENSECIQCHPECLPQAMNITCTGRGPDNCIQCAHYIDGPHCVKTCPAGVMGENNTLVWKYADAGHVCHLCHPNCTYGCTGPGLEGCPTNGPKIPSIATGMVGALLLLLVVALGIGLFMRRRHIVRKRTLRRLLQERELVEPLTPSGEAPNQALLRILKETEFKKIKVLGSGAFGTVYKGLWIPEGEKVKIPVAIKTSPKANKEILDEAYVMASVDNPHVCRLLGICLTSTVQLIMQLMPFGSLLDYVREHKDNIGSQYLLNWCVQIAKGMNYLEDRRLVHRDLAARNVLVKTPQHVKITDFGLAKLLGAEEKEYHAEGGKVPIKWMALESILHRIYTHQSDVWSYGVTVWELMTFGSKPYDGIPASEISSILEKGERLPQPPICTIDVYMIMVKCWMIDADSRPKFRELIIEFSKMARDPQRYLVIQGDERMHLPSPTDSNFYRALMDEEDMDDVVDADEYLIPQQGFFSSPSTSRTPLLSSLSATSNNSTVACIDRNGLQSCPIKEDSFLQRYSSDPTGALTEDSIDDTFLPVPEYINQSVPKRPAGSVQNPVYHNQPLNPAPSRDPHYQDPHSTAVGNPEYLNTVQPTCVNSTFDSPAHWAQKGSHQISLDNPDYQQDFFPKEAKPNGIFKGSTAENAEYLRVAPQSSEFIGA
Chain of EGFR L858R/C797S (P00533 25-1210 C797S/L858R): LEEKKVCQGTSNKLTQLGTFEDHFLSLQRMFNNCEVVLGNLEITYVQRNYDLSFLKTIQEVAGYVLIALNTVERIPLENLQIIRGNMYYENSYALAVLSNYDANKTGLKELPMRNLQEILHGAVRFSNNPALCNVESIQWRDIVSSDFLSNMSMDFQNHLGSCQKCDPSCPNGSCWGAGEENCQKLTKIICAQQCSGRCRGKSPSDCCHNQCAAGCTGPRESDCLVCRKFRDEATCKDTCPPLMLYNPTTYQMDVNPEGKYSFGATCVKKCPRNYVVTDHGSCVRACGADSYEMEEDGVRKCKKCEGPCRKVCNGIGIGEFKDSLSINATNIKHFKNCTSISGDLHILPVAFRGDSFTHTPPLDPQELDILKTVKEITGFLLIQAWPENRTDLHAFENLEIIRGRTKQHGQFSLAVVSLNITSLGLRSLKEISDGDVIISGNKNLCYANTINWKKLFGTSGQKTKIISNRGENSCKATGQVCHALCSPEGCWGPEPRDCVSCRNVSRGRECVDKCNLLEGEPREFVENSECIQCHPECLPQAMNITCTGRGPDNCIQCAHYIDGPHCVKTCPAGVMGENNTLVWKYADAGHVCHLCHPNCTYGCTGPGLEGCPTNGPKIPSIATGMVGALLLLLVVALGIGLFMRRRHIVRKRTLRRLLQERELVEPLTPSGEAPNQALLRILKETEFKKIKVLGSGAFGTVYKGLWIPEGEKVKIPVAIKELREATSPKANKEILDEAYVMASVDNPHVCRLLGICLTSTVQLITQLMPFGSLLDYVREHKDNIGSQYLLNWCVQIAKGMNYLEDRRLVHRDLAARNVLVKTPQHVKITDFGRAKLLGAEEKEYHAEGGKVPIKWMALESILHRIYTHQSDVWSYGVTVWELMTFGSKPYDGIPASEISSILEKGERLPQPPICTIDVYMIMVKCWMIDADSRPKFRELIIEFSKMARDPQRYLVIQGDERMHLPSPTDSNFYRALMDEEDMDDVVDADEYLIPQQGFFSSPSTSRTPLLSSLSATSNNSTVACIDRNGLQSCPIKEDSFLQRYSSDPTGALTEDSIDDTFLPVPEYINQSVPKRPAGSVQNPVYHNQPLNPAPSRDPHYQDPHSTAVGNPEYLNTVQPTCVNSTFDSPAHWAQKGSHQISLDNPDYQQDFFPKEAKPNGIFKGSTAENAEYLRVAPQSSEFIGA
Chain of EGFR del19/C797S (P00533 with tags, fused parts or gaps DEL746-750/C797S): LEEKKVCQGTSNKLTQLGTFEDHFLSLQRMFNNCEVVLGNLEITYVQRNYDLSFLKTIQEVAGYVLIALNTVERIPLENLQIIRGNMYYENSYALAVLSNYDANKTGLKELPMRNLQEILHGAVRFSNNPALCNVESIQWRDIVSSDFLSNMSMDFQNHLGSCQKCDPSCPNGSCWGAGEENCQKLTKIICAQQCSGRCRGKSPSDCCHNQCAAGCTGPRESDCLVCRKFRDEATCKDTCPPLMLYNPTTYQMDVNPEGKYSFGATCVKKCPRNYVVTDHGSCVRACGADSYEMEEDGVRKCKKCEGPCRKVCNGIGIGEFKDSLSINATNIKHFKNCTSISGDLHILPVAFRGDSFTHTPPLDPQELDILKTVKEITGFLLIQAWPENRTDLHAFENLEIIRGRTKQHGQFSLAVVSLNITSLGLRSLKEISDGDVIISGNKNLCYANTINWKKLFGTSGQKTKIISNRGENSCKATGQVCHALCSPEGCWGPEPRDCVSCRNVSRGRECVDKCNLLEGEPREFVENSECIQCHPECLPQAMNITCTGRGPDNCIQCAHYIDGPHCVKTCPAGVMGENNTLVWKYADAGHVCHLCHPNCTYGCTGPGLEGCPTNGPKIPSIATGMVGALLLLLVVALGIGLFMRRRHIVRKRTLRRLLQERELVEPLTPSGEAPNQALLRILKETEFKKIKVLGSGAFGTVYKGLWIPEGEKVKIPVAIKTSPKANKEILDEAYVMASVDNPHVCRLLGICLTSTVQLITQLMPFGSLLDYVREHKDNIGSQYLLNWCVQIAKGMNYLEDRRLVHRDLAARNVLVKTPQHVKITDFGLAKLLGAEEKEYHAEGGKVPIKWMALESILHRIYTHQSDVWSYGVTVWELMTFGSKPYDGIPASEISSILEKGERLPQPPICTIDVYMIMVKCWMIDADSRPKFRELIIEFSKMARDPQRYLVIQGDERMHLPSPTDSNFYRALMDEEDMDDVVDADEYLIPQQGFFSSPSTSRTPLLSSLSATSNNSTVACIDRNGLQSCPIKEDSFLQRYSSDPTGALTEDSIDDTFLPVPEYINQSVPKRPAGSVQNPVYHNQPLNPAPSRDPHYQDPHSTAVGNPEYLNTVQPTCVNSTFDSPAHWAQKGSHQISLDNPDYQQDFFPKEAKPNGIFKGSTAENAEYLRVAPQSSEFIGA
Chain of EGFR L858R/T790M/C797S (P00533 25-1210 T790M/C797S/L858R): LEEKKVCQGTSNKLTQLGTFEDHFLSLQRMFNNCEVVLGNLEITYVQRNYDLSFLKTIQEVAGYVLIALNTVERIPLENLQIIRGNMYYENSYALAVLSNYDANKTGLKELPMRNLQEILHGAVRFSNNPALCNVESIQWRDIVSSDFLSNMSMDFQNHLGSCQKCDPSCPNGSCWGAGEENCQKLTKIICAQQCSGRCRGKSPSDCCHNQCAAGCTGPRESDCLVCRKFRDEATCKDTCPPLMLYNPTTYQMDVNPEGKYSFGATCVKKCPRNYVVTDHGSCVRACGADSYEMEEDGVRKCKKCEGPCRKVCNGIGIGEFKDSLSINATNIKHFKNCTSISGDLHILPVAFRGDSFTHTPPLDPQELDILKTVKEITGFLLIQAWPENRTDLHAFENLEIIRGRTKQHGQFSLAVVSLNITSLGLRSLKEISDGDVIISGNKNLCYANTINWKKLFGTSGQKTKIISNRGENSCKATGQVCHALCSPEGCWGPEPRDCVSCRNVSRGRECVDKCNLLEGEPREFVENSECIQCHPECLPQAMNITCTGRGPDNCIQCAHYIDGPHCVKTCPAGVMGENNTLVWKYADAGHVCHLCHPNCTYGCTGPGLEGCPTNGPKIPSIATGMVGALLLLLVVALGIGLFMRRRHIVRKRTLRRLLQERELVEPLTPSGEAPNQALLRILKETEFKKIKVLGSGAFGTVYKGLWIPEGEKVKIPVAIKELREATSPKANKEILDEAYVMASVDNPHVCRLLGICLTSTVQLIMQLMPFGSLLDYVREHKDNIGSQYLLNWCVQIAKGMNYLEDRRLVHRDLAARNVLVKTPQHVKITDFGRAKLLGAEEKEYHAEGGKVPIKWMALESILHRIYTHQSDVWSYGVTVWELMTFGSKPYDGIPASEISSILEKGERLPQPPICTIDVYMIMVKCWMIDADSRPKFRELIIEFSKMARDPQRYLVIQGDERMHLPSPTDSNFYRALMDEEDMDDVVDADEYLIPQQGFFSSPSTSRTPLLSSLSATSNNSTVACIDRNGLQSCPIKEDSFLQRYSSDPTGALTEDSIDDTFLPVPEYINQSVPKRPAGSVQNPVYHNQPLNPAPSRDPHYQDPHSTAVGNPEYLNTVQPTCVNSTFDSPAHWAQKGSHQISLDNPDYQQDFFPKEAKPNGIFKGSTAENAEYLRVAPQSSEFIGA

Work on CN1CC(Nc2cc(Nc3ccnc(-c4cnn(S(=O)(=O)C5CC5)c4)n3)ncc2-c2ccn(C(F)F)n2)CCC1=O (stereo not shown) [Example 37, 5-((2-((2-(1-(Cyclopropylsulfonyl)-1H-pyrazol-4-yl)pyrimidin-4-yl)amino)-5-(1-(difluoromethyl)-1H-pyrazol-3-yl)pyridin-4-yl)amino)-1-methylpiperidin-2-one] yielded an IC50 [1, 6] of 264 nM, an IC50 [1, 7] of 5 nM and an IC50 [2, 8] of 6.6 nM. It also gave an IC50 [2, 9] of 0.7 nM, an IC50 [3, 10] of 16.6 nM and an IC50 [3, 11] of 12.1 nM. The IC50 [4, 12] was 1.4 nM, the IC50 [4, 13] was 1.2 nM and the IC50 [5, 14] was greater than 10000 nM. It also gave an IC50 [5, 15] of 108 nM.
O=C1NCCCC1Nc1cc(Nc2ccnc(-c3cnn(S(=O)(=O)C4CC4)c3)n2)ncc1-c1ccn(C(F)F)n1 (stereo not shown) [Example 38, 3-((2-((2-(1-(Cyclopropylsulfonyl)-1H-pyrazol-4-yl)pyrimidin-4-yl)amino)-5-(1-(difluoromethyl)-1H-pyrazol-3-yl)pyridin-4-yl)amino)piperidin-2-one] was tested, and the IC50 [1, 6] was 182 nM, the IC50 [1, 7] was 9.1 nM and the IC50 [2, 8] was 2.5 nM. For the same molecule, the IC50 [2, 9] was 0.3 nM, the IC50 [3, 10] was 24.8 nM and the IC50 [3, 11] was 23.7 nM. The IC50 [4, 12] was 0.5 nM, the IC50 [4, 13] was 0.5 nM and the IC50 [5, 14] was greater than 10000 nM. The IC50 [5, 15] was 60.7 nM.
O=S(=O)(C1CC1)n1cc(-c2nccc(Nc3cc(NC4CC5CC(O)C4C5)c(-c4ccn(C(F)F)n4)cn3)n2)cn1 (stereo not shown) [Example 39, 6-((2-((2-(1-(Cyclopropylsulfonyl)-1H-pyrazol-4-yl)pyrimidin-4-yl)amino)-5-(1-(difluoromethyl)-1H-pyrazol-3-yl)pyridin-4-yl)amino)bicycle[2.2.1]heptan-2-ol] gave an IC50 [1, 6] of 262 nM, an IC50 [1, 7] of 27.8 nM and an IC50 [2, 8] of 7.9 nM. The IC50 [2, 9] was 1.2 nM, the IC50 [3, 10] was 17.6 nM and the IC50 [3, 11] was 7.2 nM. For the same molecule, the IC50 [4, 12] was 3.6 nM, the IC50 [4, 13] was 1.6 nM and the IC50 [5, 14] was greater than 10000 nM. For the same molecule, the IC50 [5, 15] was 143 nM.
O=S(=O)(C1CC1)n1cc(-c2nccc(Nc3cc(NC4CC(O)C4)c(-c4ccn(C(F)F)n4)cn3)n2)cn1 (stereo not shown) [Example 40, 3-((2-((2-(1-(Cyclopropylsulfonyl)-1H-pyrazol-4-yl)pyrimidin-4-yl)amino)-5-(1-(difluoromethyl)-1H-pyrazol-3-yl)pyridin-4-yl)amino)cyclobutan-1-ol] showed an IC50 [1, 6] of 174 nM, an IC50 [1, 7] of 4.5 nM and an IC50 [2, 8] of 2 nM. The IC50 [2, 9] was 0.3 nM, the IC50 [3, 10] was 7.6 nM and the IC50 [3, 11] was 2.3 nM. For the same molecule, the IC50 [4, 12] was 0.5 nM, the IC50 [4, 13] was 0.5 nM and the IC50 [5, 14] was greater than 10000 nM. For the same molecule, the IC50 [5, 15] was 36.3 nM.
Molecule O=S(=O)(C1CC1)n1cc(-c2nccc(Nc3cc(NCCCn4ccnc4)c(-c4ccn(C(F)F)n4)cn3)n2)cn1 [Example 41, N^4-(3-(1H-Imidazol-1-yl)propyl)-N^2-(2-(1-(cyclopropylsulfonyl)-1H-pyrazol-4-yl)pyrimidin-4-yl)-5-(1-(difluoromethyl)-1H-pyrazol-3-yl)pyridine-2,4-diamine] has an IC50 [1, 6] greater than 10000 nM, an IC50 [2, 8] of 6.8 nM and an IC50 [3, 10] of 34.8 nM. For the same molecule, the IC50 [4, 12] was 2 nM and the IC50 [5, 14] was greater than 10000 nM.
Work on Cn1ccc(-c2cnc(Nc3ccnc(-c4cnn(S(=O)(=O)C5CC5)c4)n3)cc2N[C@H]2CC[C@@H](NCCF)CC2)n1 [Example 43, N^2-(2-(1-(Cyclopropylsulfonyl)-1H-pyrazol-4-yl)pyrimidin-4-yl)-N^4-((1s,4s)-4-((2-fluoroethyl)amino)cyclohexyl)-5-(1-methyl-1H-pyrazol-3-yl)pyridine-2,4-diamine] yielded an IC50 [1, 6] of 14.7 nM, an IC50 [1, 7] of 0.4 nM and an IC50 [2, 8] of 0.3 nM. It also gave an IC50 [2, 9] of 0.1 nM, an IC50 [3, 11] of 0.7 nM and an IC50 [4, 12] of 0.3 nM. The IC50 [4, 13] was 0.2 nM, the IC50 [5, 14] was 5240 nM and the IC50 [5, 15] was 4.9 nM.
Cn1ccc(-c2cnc(Nc3ccnc(-c4cnn(S(=O)(=O)C5CC5)c4)n3)cc2N[C@H]2CC[C@]3(CCC(=O)N3)CC2)n1 [Example 44, (5s,8s)-8-((2-((2-(1-(Cyclopropylsulfonyl)-1H-pyrazol-4-yl)pyrimidin-4-yl)amino)-5-(1-methyl-1H-pyrazol-3-yl)pyridin-4-yl)amino)-1-azaspiro[4.5]decan-2-one] was tested, and the IC50 [1, 6] was 0.8 nM, the IC50 [1, 7] was 0.2 nM and the IC50 [2, 8] was 0.2 nM. It also gave an IC50 [2, 9] of 0.1 nM, an IC50 [3, 10] of 0.2 nM and an IC50 [3, 11] of 0.2 nM. The IC50 [4, 12] was 0.2 nM, the IC50 [4, 13] was 0.2 nM and the IC50 [5, 14] was greater than 10000 nM. It also gave an IC50 [5, 15] of 1 nM.
